# Assay results reported in publication PMC11251039, “Harnessing cholesterol uptake of malaria parasites for therapeutic applications” (EMBO Molecular Medicine, 2024).
# “And” between values parts separate entries of the source, which are not always exact repeats. Equal entries are not always repeated.
# Columns and labels:
# [1] = test system: human hepatoma cells (Huh7); test: Human hepatoma viability assay (CellTiter-Blue); type: cell-based; conditions: for Huh7 viability, dose-response data points (Figure 3F): replicate data points, listed as BC9B
# Procedure: Huh7 hepatoma viability assays were conducted in the same manner as the P. berghei assays, with metabolic capacity (indicating viability) measured with a fluorescence microplate reader after incubation with CellTiter-Blue® (Promega) for 3 h.
# Appendix Fraser/Curtis et al. […]
# Human Hepatoma Viability Assays:
# The Huh7 hepatoma cell line (ATCC) was maintained under routine culture conditions in Dulbecco's Modified Eagle Medium (DMEM) containing 3.7 g/L NaHCO3 supplemented with 10% foetal bovine serum (FBS), 100 units/mL penicillin, and 100 μg/mL streptomycin at 37 °C in a humidified 5% CO2 incubator.
# Viability assays were performed in parallel to the P. berghei growth inhibition. 10,000 Huh7 cells were seeded in 96-well and dark-sided microplates (Greiner Bio One) and cultured at 37°C, 5% CO2 and 80% humidity. The next day, the media was replaced with compounds or solvent controls (DMSO) serially diluted in culture media. Media was partially replaced with new drug dilutions over the following two days. After 48 hours, CellTiter-Blue® (Promega) was added according to the manufacturer’s instructions and incubated for 3 hours. Fluorescence intensity was measured with 530/25 ex and 590/20 em in a Synergy HTX plate reader (Agilent).
# [2] = test system: P. falciparum stage III–IV gametocytes; test: P. falciparum gametocyte viability assay (MitoTracker, flow cytometry), stage III-IV; type: cell-based, Plasmodium falciparum; conditions: 48 h; for Gametocyte stage III-IV viability, percentage of control: listed as BC9B
# Procedure: (§1) Gametocyte assays commenced seven days (stage III–IV) or ten days (stage V) post-invasion. […]
# (§2) Plasmodium falciparum Gametocyte Viability Assays:
# (§3) Asexual P. falciparum parasites were induced to form gametocytes as described (21).
# (§4) Synchronized trophozoite-stage parasites at 2% parasitaemia were incubated overnight and […]
# (§5) haematocrit maintained at 4%. On the subsequent day (designated as day 0) of gametocytogenesis, the culture containing early ring-stage parasites was first purified by sorbitol synchronisation to remove asynchronous trophozoites, and passed through a magnetic field in a sterile MACS® column in a SuperMACSTM II magnet to remove remaining late-stage parasites or later-stage gametocytes (negative selection). The culture medium was supplemented with 50 mM N-acetyl-D-glucosamine to inhibit asexual parasite proliferation, and changed daily. Sorbitol treatment was performed on Day 1, 5, and 6 to further remove asexual parasites. Gametocytes were magnetically enriched (positive selection) in a sterile column with a SuperMACSTM II magnet and eluted in culture media with 50 mM N-acetyl-D-glucosamine. These gametocytes were incubated overnight at 37 °C under microaerophilic conditions, and purity was assessed by examination under a light microscope (400× […]
# (§6) Gametocyte viability was assessed as described by Ridgway et al. (21) with modifications.
# (§7) Compounds or solvent controls (DMSO) were serially diluted across 96-well plates in culture media supplemented with 50 mM N-acetyl-D-glucosamine. Culture media without compound was used as a negative control. […]
# (§8) control to determine background gametocyte fluorescence. Stage III-IV gametocytes (Day 7) or stage V (day 10) gametocytes were concentrated and added to the plate with 200 µL per well. The plate was incubated for 48 hours at 37 °C under humid microaerophilic conditions.
# (§9) Parasites were then stained with 500 nM MitoTrackerTM Deep Red FM and 5 μg/ml Hoechst […]
# (§10) cytometer as described above. […]
# (§11) excluded. Live (positive) and dead (negative) gametocytes were differentiated by […]
# (§12) percentage of each was calculated. […]
# [3] = test system: P. falciparum stage V gametocytes; test: P. falciparum gametocyte viability assay (MitoTracker, flow cytometry), stage V; type: cell-based, Plasmodium falciparum; conditions: 50.000000000 uM, 48 h, replicate values, source data Fig. 2D; listed as BC9B
# Procedure: as §1, §2, §3, §4, §5, §6, §7, §8, §9, §10, §11, §12
compound,measurement,setting,value
COc1cc(NC(C)CCCNC(=O)CCC(=O)OC(C)C)c2ncccc2c1 (stereo not drawn) [PQ-link],"Huh7 viability, dose-response data points (Figure 3F)","[1]; 0.015241580 uM, 0.0152416 µM",107.3 and 97.91 and 99.21 and 88.27 and 85.99 and 85.17 and 77.48 and 99.67 and 102.9
same,"Huh7 viability, dose-response data points (Figure 3F)","[1]; 0.045724740 uM, 0.0457247 µM",101.4 (2×) and 102.9 and 96.11 and 84.48 and 82.6 and 86.76 and 77.19 and 99.77
same,"Huh7 viability, dose-response data points (Figure 3F)","[1]; 0.137174210 uM, 0.137174 µM",100.3 and 97.53 and 89.5 and 87.16 and 86.15 and 91.05 and 98.93 and 94.82
same,"Huh7 viability, dose-response data points (Figure 3F)","[1]; 0.411522630 uM, 0.411523 µM",98.17 and 99.16 and 96.93 and 83.82 and 84.25 and 87.07 and 70.92 and 100.4 and 90.7
same,"Huh7 viability, dose-response data points (Figure 3F)","[1]; 1.234567900 uM, 1.23457 µM",106.4 and 97.98 and 99.19 and 82.25 and 86.23 and 90.4 and 72.24 and 83.96 and 96.58
same,"Huh7 viability, dose-response data points (Figure 3F)","[1]; 3.703703700 uM, 3.7037 µM",96.27 and 98.44 and 90.47 and 77.12 and 78.19 and 82.37 and 76.62 and 90.94 and 92.11
same,"Huh7 viability, dose-response data points (Figure 3F)","[1]; 11.111111100 uM, 11.1111 µM",98.42 and 95.99 and 90.47 and 70.14 and 68.57 and 67.94 and 56.41 and 72.23 and 71.76
same,"Huh7 viability, dose-response data points (Figure 3F)","[1]; 33.333333300 uM, 33.3333 µM",79.4 and 75.47 and 83.67 and 39.88 and 39.61 and 43.08 and 30.62 and 36.38 and 34.72
same,"Huh7 viability, dose-response data points (Figure 3F)",[1]; 100.000000000 uM,33.18 and 40.69 and 39.77 and 19.19 and 19.87 and 20.01 and 9.61 and 11.04 and 10.16
same,IC50,"[1]; Homo sapiens, Huh-7, 48 h, Huh7, read-out: IC50, human hepatoma inhibition (viability)",32.8 µM
same,"Gametocyte stage III-IV viability, percentage of control","[2]; 3.125000000 uM, replicate values, source data Fig. 2C, 3.125 µM",95.52% (2×) and 103.7% and 98.94% and 103.3% and 102% and 98.19% and 98.79% and 101.3% and 100.5% and 109.4%
same,"Gametocyte stage III-IV viability, percentage of control","[2]; 6.250000000 uM, replicate values, source data Fig. 2C, 6.25 µM",103.3% and 99.89% and 101.1% and 100.9% and 104.1% and 103.4% and 100.6% and 98.59% and 102.7% and 100.3% and 94.88%
same,"Gametocyte stage III-IV viability, percentage of control","[2]; 12.500000000 uM, replicate values, source data Fig. 2C, 12.5 µM",96% and 94.38% and 101.5% and 100.5% and 100.7% and 100.4% and 98.39% (2×) and 102.7% and 98.65% and 95.96%
same,"Gametocyte stage III-IV viability, percentage of control","[2]; 25.000000000 uM, replicate values, source data Fig. 2C",93.41% and 97.62% and 99.34% and 95.75% and 97.14% and 99.2% and 97.59% and 96.58% and 96.77% and 92.46% and 91.11%
same,"Gametocyte stage III-IV viability, percentage of control","[2]; 50.000000000 uM, replicate values, source data Fig. 2C",83.69% and 82.72% and 92.56% and 88.38% and 90.37% and 90.15% and 87.94% (2×) and 83.57% and 86.8% and 83.3%
same,"Gametocyte stage III-IV viability, percentage of control","[2]; 100.000000000 uM, replicate values, source data Fig. 2C",63.1% and 60.41% and 65.29% and 78% and 74.98% and 78.2% and 65.68% and 65.48% and 64.86% and 59.49% and 56.77% and 63.58%
same,"Gametocyte stage III-IV viability, percentage of control","[2]; 200.000000000 uM, replicate values, source data Fig. 2C",0.3329% and -3.262% and -3.462% and -33.89% and -33.85% and -34.28% and -34.3% and -33.84% and -35.23%
same,viability at 3.125 µM,"[2]; Plasmodium falciparum, 3.125000000 uM, replicate values, source data Fig. 2C, read-out: Gametocyte stage III-IV viability, percentage of control",97.8%
same,viability at 6.25 µM,"[2]; Plasmodium falciparum, 6.250000000 uM, replicate values, source data Fig. 2C, read-out: Gametocyte stage III-IV viability, percentage of control",100%
same,viability at 12.5 µM,"[2]; Plasmodium falciparum, 12.500000000 uM, replicate values, source data Fig. 2C, read-out: Gametocyte stage III-IV viability, percentage of control",94.9%
same,viability at 25 µM,"[2]; Plasmodium falciparum, 25.000000000 uM, replicate values, source data Fig. 2C, read-out: Gametocyte stage III-IV viability, percentage of control",92.1%
same,viability at 50 µM,"[2]; Plasmodium falciparum, 50.000000000 uM, replicate values, source data Fig. 2C, read-out: Gametocyte stage III-IV viability, percentage of control",82.6%
same,IC50,"[2]; Plasmodium falciparum, read-out: IC50, P. falciparum gametocyte stage III-IV inhibition",103 µM
same,"Gametocyte stage V viability, percentage of control",[3],66.98% and 63.41% and 52.55% and 74.37% and 69.92% and 70.17%
